Test results as given in patent publication US5352770A, “Porcine derived novel physiologically active peptide” (priority 1990, dated 1994).
Positions of bridges follow the written chain, without caps; N, C: chain ends. No end group written: not given here.

Key:
VSMC of rats = assay: Cell growth suppressing activity ([3H]thymidine uptake); assay type: cell-based, rat; conditions: cultured vascular smooth muscle cell line
Protocol: Cell growth suppressing ability was evaluated in accordance with the method of Kariya et al. (Atherosclerosis, 80, 143-147, 1990) by measuring the uptake of ^3 H thymidine into cells as an indicator of DNA synthesis activity using VSMC of rats. Cells tuned to a stationary phase were incubated in 1% serum at 37° C. for 14 h together with various concentrations of α-hANP or CNP; following the addition of 37 KBq/ml [^3 H]thymidine, the incubation was continued for another 4 h. The radioactivity of [^3 H] thymidine incorporated into the cells was measured. The values of measurement were such that the radioactivity of [^3 H] thymidine for the case where only 1% serum was added in the absence of peptide was taken as 100%, with the percent suppression due to the peptide at the respective concentrations being accordingly calculated.

chick rectum = assay: Chick rectum relaxant activity; conditions: fold activity versus α-hANP
Protocol: Chick rectum relaxant activity was measured in accordance with the method of Curtie et al. (Cuttle et al., Nature, 221, 1-13, 1983).

Male SD rats = assay: Natriuretic and hypotensive actions in anesthetized rats after intravenous administration; assay type: in vivo, rat; conditions: for Blood pressure drop / Cl- excretion / K+ excretion / Na+ excretion / Urine excretion: change in 15 min after administration vs before, mean±S.D., 4 animals
Protocol: Male SD rats (body weight: 230-290 g) were anesthetized by intraperitoneal injection with 65 mg/kg of pentobarbital and fitted with a tracheotomy tube (PE-240 of Clay Adams) in order to insure the respiratory tract. A cannula (PE-50) for blood pressure measurement was inserted into the hip artery and a Ringer's solution was injected at a steady rate of 1.8 ml/hr through a cannula (PE-10) inserted into the hip vein. A urinary sample was taken into a test tube through a cystic cannula in the form of a Silastic tube (i.d. 0.02 inch; o.d. 0.037 inch; Dow Corning). Urinary samples were taken both for 15 minutes before the administration of the test substance and until 15 minutes after the administration at 5 min interval, followed by subsequent sampling at predetermined time intervals. By comparing the amount of each sample with the concentration of an electrolyte in it, as well as by measuring the blood pressure changes, the actions of the test substance were evaluated.
The test substance CNP was dissolved in a predetermined amount in 0.1 N acetic acid and thereafter neutralized with a 1/10 volume of 1.3 M Tris solution. The sample was diluted with 50 μl of sterilized physiological saline and administered via the cervical vein.
Data are shown in terms of mean±S.D., as obtained from each group of 4 animals, of the change that occurred in the 15-min period from the administration of the test substance, as compared to the state before the administration.

[1] = tested on: cultured vascular smooth muscle cell line; assay: cGMP production in cultured vascular smooth muscle cell line; assay type: cell-based
rats = conditions: cited from earlier work

For `CC[C@H](C)[C@@H]1NC(=O)[C@H](CCCNC(=N)N)NC(=O)[C@H](CC(=O)O)NC(=O)[C@H](CC(C)C)NC(=O)[C@H](CCCCN)NC(=O)[C@H](CC(C)C)NC(=O)CNC(=O)[C@H](Cc2ccccc2)NC(=O)[C@@H](NC(=O)CNC(=O)[C@H](CCCCN)NC(=O)[C@H](CO)NC(=O)[C@H](CC(C)C)NC(=O)CN)CSSC[C@@H](C(=O)O)NC(=O)CNC(=O)[C@H](CC(C)C)NC(=O)CNC(=O)[C@H](CO)NC(=O)[C@H](CCSC)NC(=O)[C@H](CO)NC(=O)CNC1=O` [CNP], the “Growth inhibiting action on vascular smooth muscle cells (in words)” value (VSMC of rats) was “had a growth inhibiting action”, the “Chick rectum relaxant activity relative to α-hANP” value (chick rectum) was 3 - 4 times and the Blood pressure drop (Male SD rats; CNP dose 12 nmol/kg i.v.) was 6.7 ± 1.7 mmHg. For the same compound, the Cl- excretion (Male SD rats; CNP dose 12 nmol/kg i.v.) was 228 ± 32%, the “K+ excretion” value (Male SD rats; CNP dose 12 nmol/kg i.v.) was 220 ± 43% and the “Na+ excretion” value (Male SD rats; CNP dose 12 nmol/kg i.v.) was 192 ± 28%. For the same compound, the Urine excretion (Male SD rats; CNP dose 12 nmol/kg i.v.) was 229 ± 38%, the Blood pressure drop (Male SD rats; CNP dose 80 nmol/kg i.v.) was 16.7 ± 4.2 mmHg and the Cl- excretion (Male SD rats; CNP dose 80 nmol/kg i.v.) was 301 ± 83%. The “K+ excretion” value (Male SD rats; CNP dose 80 nmol/kg i.v.) was 167 ± 29%, the “Na+ excretion” value (Male SD rats; CNP dose 80 nmol/kg i.v.) was 286 ± 125% and the Urine excretion (Male SD rats; CNP dose 80 nmol/kg i.v.) was 251 ± 62%. For the same compound, the Blood pressure drop (Male SD rats; CNP dose 160 nmol/kg i.v.) was 14.2 ± 5.2 mmHg, the Cl- excretion (Male SD rats; CNP dose 160 nmol/kg i.v.) was 400 ± 45% and the “K+ excretion” value (Male SD rats; CNP dose 160 nmol/kg i.v.) was 238 ± 46%. The “Na+ excretion” value (Male SD rats; CNP dose 160 nmol/kg i.v.) was 371 ± 69%, the Urine excretion (Male SD rats; CNP dose 160 nmol/kg i.v.) was 421 ± 40% and the “Natriuretic and hypotensive actions (in words)” value (Male SD rats; rats, intravenous, 12-160 nmol/kg) was “those actions increased in a dose-dependent manner”. For the same compound, the “Activity for promoting the production of cGMP (in words)” value [1] was “found to have an activity for promoting the production of cyclic guanosine monophosphate”.

In the case of “pBNP: porcine-derived brain natriuretic peptide, single-stranded peptide composed of 26 amino acids having a single S--S bond (DSGCFGRRLDRIGSLSGLGCNVLRRY; disulfide 4-20 (inferred); UniProt P07634 106-131, looked up)”, the “Natriuretic and hypotensive actions compared with α-hANP (in words)” value (rats) is listed as “comparable levels of natriuretic and hypotensive actions to α-hANP”.
